What was measured:
[1] = biological target: T1, AHAS I (Escherichia coli, UniProt P08142+P0ADF8, N17K); assay: Activity of AHAS I in crude cell extracts with or without addition of 10 mM L-Val; format: biochemical, E. coli
T1 construct: expressed in transfected cells; host or cells: E. coli K12 B7 (VKPM B-7) ΔilvGM ΔilvIH with a chromosomal ilvBN4 operon under PilvC (or PL); crude cell extracts
Method: Cells were grown to the middle-logarithmic phase in M9:LB (9:1, v/v) medium supplemented with glucose (0.4%, w/v). Activity of AHAS I in crude cells extracts was measured with or without addition of 10 mM L-Val according to the assay described in Stormer F. and Umbarger H., Biochem. Biophys. Res. Commun., 1964, 17(5):587-592.

[2] = system: β-galactosidase LacZ; assay: Activity of β-galactosidase LacZ by Miller's method; format: cell-based, E. coli; conditions: strain B7; +IPTG, 1 mM; middle-logarithmic phase, M9:LB (9:1) with glucose 0.4%
Method: For the measurement of β-galactosidase activity, the strains were grown to the middle-logarithmic phase in M9:LB (9:1, v/v) medium supplemented with glucose (0.4%, w/v). The medium for the strains having ilvAYC deletion and AHAS-deficient strains was additionally supplemented with Ile (25 mg/1) and Val (25 mg/1). Activity of β-galactosidase was measured according to Miller's method (Miller J. H. (1972) Experiments in molecular genetics. Cold Spring Harbor Laboratory, Cold Spring Harbor). The data presented in Table 2 indicate that expression level of the reporter lacZ gene under PilvC promoter varies within the range of more than two orders of magnitude depending on the genetic background. The maximal expression level was provided by the E. coli strains modified to overexpress L-valine resistant AHAS I (the product of the ilvBN4 genes) or/and containing inactivated the isomeroreductase IlvC encoding gene (ilvC).

T1 sequence (P08142 whole entry): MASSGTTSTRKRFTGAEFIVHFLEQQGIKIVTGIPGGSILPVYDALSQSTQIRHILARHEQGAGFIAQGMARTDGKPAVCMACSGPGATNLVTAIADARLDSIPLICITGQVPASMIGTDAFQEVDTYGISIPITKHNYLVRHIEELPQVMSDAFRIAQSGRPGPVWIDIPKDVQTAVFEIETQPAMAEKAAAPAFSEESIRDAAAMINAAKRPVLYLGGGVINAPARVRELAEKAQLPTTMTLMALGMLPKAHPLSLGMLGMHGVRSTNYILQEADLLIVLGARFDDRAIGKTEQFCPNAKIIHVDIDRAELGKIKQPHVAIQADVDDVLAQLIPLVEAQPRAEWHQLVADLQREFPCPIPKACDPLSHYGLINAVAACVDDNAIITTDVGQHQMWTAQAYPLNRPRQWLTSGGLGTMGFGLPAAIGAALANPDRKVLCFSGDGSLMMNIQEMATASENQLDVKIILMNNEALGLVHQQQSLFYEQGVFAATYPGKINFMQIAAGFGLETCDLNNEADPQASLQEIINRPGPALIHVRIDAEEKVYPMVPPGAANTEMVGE
T1 sequence (P0ADF8 whole entry N17K): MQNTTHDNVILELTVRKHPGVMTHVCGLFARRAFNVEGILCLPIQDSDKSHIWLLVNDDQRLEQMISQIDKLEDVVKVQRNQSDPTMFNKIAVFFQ

Structure (SMILES)	AHAS I activity with L-Val, 10 mM (percent of value, measured without L-Val addition) ([1]; crude extract of strain B7 ΔilvGM ΔilvIH PL-ilvBN4 (control)) [%]	AHAS I activity with L-Val, 10 mM ([1]; crude extract of strain B7 ΔilvGM ΔilvIH PL-ilvBN4 (control), mean of triplicate) [nmol/min/mg]	AHAS I activity with L-Val, 10 mM (percent of value, measured without L-Val addition) ([1]; crude extract of strain B7 ΔilvGM ΔilvIH cat-ilvY-PilvC-ilvBN4 cl.1) [%]	AHAS I activity with L-Val, 10 mM ([1]; crude extract of strain B7 ΔilvGM ΔilvIH cat-ilvY-PilvC-ilvBN4 cl.1, mean of triplicate) [nmol/min/mg]	AHAS I activity with L-Val, 10 mM (percent of value, measured without L-Val addition) ([1]; crude extract of strain B7 ΔilvGM ΔilvIH cat-ilvY-PilvC-ilvBN4 cl.4) [%]	AHAS I activity with L-Val, 10 mM ([1]; crude extract of strain B7 ΔilvGM ΔilvIH cat-ilvY-PilvC-ilvBN4 cl.4, mean of triplicate) [nmol/min/mg]	Specific activity of β-galactosidase [2] [Miller's units]
CC(C)[C@H](N)C(=O)O [L-Val, L-valine]	86	51	88	80	88	106	
CC(C)S[C@@H]1O[C@H](CO)[C@H](O)[C@H](O)[C@H]1O [IPTG]							1200

Reference: US9574216B2, “Auto-indicible expression system, and the use thereof for producing useful metabolites using a bacterium of the family enterobacteriaceae” (priority 2012, dated 2017)
